# Molecular target: T1, RNase I (Escherichia coli, UniProt P21338)
# T1 construct: purchased
# Experiment: ribonuclease specificity test
# Format: biochemical
# Settings: any concentration tested (0-750 μM)
# Excerpt: In total, fourteen molecules inhibited the enzyme's RNA turnover activity by ≧50%. A gel-based secondary assay confirmed that five of these molecules were bona-fide inhibitors of RnpA-mediated RNA degradation (FIG. 3B).
# T1 sequence (P21338 24-268): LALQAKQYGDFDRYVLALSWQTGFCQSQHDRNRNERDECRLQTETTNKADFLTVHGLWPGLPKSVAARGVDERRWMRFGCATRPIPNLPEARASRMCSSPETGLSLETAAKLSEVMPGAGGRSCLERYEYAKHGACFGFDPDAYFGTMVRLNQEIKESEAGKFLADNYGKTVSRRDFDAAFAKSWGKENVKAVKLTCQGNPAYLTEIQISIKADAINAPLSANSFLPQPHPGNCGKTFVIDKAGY
smiles,measurement,value
Cc1cc(/C=C(/C#N)C(=O)Nc2cccc(Br)c2)c(C)n1-c1ccc(C(=O)O)cc1 [RNPA1000],effect on RNase I activity,did not affect the activity

# From patent US9233095B2, “Small molecule RNase inhibitors and methods of use” (University of Rochester, priority 2011, dated 2016)
